Here are results for 30 compounds from patent publication US8058285B2, “Substituted pyrido [3′, 2′: 4, 5] thieno [3, 2-D] pyrimidines and pyrido [3′, 2′: 4, 5] furo [3, 2-D] pyrimidines used as inhibitors of the PDE-4 and/or the release of TNF-ALPHA” (The Medicines Company (Leipzig) GmbH, priority 2004, dated 2011).

Molecules are shown by their SMILES. Some results are limits rather than exact numbers.

For the test, the target named is T1, PDE-4A (Homo sapiens, UniProt P27815).
T1 construct: PDE-4A catalytic domain comprising amino acids 342-704; made in house; host or cells: Escherichia coli
T1 sequence (P27815 342-704): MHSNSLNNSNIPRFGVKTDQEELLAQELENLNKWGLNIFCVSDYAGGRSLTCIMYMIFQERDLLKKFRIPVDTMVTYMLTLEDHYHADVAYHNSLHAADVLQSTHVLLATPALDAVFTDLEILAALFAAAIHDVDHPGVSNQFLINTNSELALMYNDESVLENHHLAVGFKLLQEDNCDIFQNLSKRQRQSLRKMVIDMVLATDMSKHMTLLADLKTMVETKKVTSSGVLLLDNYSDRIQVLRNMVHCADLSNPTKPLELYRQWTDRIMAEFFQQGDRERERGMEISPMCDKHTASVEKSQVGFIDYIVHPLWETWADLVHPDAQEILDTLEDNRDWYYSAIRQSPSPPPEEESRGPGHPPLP
Kind of test: PDE-4A inhibitory assay (SPA). It counts as biochemical. From the text:
Human recombinant PDE-4A catalytic domain comprising amino acids 342-704 was cloned into Escherichia coli and expressed, as described by W. Richter et al., Protein Expression and Purification (2000) 19: 375-383. The other posphodiesterases were either obtained from cell lines of human origin (TPH1 monocytes line for PDE-1, MCF7 for PDE-5) or expressed recombinantly in sf9 insect cells (for PDE-3A, PDE-3B, PDE-7A and PDE-4D) in accordance with an adapted method by Luckow, V. A. et al., in: Recombinant DNA Technology & Applications., (1991) eds. Prokop, Bajpai, R. K. & Ho, C. S., pp 97-152.
The phosphodiesterase activity was determined by the SPA assay as described by the manufacturer Amersham Biosciences and by Horton J. K and Baxendale P. M., Methods Mol. Biol. (1995) 41: 91-105.
The reaction mixtures contained 100 mM Tris-HCl (pH 7.5), 5 mM MgCl2, 3.8 mM 2-mercaptoethanol, and 1 μM cAMP or cGMP as a substrate, the inhibitors at different concentrations and also further components required for the detection of the individual isoenzymes (see below). The reaction was started by adding the enzyme. The operating volume is 100 μl in the wells of a white 96-Well microtiter plate. The test substances were produced as stock solutions in DMSO. The DMSO concentration in the reaction batch was 1% v/v. The PDE activity is not impaired with this DMSO concentration. Having started the reaction by the addition of enzyme, the samples were incubated at 22° C. for 20 min. The reaction was stopped by the addition of SPA bead suspension which contains the zinc sulfate concentration provided according to the manufacturer. Then, the beads are allowed to sediment for 30 min and the plates are analyzed on the luminescence microtiter plate reader Fluostar Optima (BMG Labtechologies).
[^3H]-cAMP was used as a substrate for determining the activity of PDE-2, -3, -4 and -7 and [^3H]-cGMP for determining the activity of PDE-5. The non-specific enzyme activities were determined in the presence of 100 μM rolipram (for PDE-4) and in the presence of 100 μM IBMX (for PDE-3 and -5) and subtracted from the test values. The incubation samples of the PDE-3 assay contain 10 μM rolipram to inhibit possible contaminations by PDE-4. The PDE-2 activity is tested using a SPA assay by Amersham Biosciences in the presence of the PDE-2 activator 5 μM cGMP. […] The selectivity as to PDEs 2, 3 and 5 has a factor of 100 to 10 000.

For `CCOc1nc(N2CCNCC2)nc2c1sc1nc(-c3ccc(-c4ccco4)cc3)nc(C)c12` [4-Ethoxy-7-(4-[2-furyl]-phenyl)-9-methyl-2-piperazin-1-yl-thieno[2,3-d:4,5-d′]dipyrimidine], the IC50 (in general, the point on the concentration scale where inhibition reaches its midpoint) was below 2 nM. Consider `CCOc1nc(N2CCNCC2)nc2c1sc1nc(-c3ccc(C(O)c4cccnc4)cc3)nc(C)c12` (stereo not drawn) [4-Ethoxy-7-(4-[hydroxy{3-pyridyl}methyl]-phenyl)-9-methyl-2-piperazin-1-yl-thieno[2,3-d:4,5-d′]dipyrimidine], for which the IC50 was 2 to 50 nM.

`CCOc1ccc(-c2cc(CC)c3c(n2)sc2c(OCC)nc(N4CCNCC4)nc23)cc1` [4-Ethoxy-7-(4-ethoxy-phenyl)-9-ethyl-2-(piperazin-1-yl)-pyrido[3′,2′:4,5]thieno[3,2-d]pyrimidine] yielded an IC50 below 2 nM. Take `CCOc1nc(N2CCNCC2)nc2c1sc1nc(-c3ccc(F)cc3)cc(C(F)(F)F)c12` [4-Ethoxy-7-(4-fluoro-phenyl)-2-piperazin-1-yl-9-trifluoromethyl-pyrido[3′,2′:4,5]thieno[3,2-d]pyrimidine]: the IC50 lay within 2 to 50 nM. As for `CCOc1nc(N2CCNCC2)nc2c1sc1nc(-c3ccc(I)cc3)cc(C(F)(F)F)c12` [4-Ethoxy-7-(4-iodo-phenyl)-2-(piperazin-1-yl)-9-trifluoromethyl-pyrido[3′,2′:4,5]thieno[3,2-d]pyrimidine], the figure is below 2 nM; as for `CCOc1nc(N2CCNCC2)nc2c1sc1nc(-c3ccc(OC)cc3)cc(C(F)(F)F)c12` [4-Ethoxy-7-(4-methoxy-phenyl)-2-(piperazin-1-yl)-9-trifluoromethyl-pyrido[3′,2′:4,5]thieno[3,2-d]pyrimidine], below 2 nM; as for `CCOc1nc(N2CCNCC2)nc2c1sc1nc(-c3ccc(OC)cc3)nc(C)c12` [4-Ethoxy-7-(4-methoxy-phenyl)-9-methyl-2-piperazin-1-yl-thieno[2,3-d:4,5-d′]dipyrimidine], 2 to 50 nM. Compound `CCOc1nc(N2CCNCC2)nc2c1sc1nc(-c3ccc(OC)cc3)c(Cc3ccc([N+](=O)[O-])cc3)c(C)c12` [4-Ethoxy-7-(4-methoxy-phenyl)-9-methyl-8-(4-nitro-benzyl)-2-(piperazin-1-yl)-pyrido[3′,2′:4,5]thieno[3,2-d]pyrimidine] showed an IC50 of 2 to 50 nM. Turning to `CCOc1nc(N2CCNCC2)nc2c1sc1nc(-c3ccc(C)cc3)cc(C(F)(F)F)c12` [4-Ethoxy-7-(4-methyl-phenyl)-2-(piperazin-1-yl)-9-trifluoromethyl-pyrido[3′,2′:4,5]thieno[3,2-d]pyrimidine], the IC50 was below 2 nM. `CCOc1nc(N2CCNCC2)nc2c1sc1nc(-c3ccc(C)cc3)cc(C(C)C)c12` [4-Ethoxy-7-(4-methyl-phenyl)-9-iso-propyl-2-(piperazin-1-yl)-pyrido[3′,2′:4,5]thieno-[3,2-d]pyrimidine]: the IC50 is below 2 nM. The same measure for `CCOc1nc(N2CCNCC2)nc2c1sc1nc(-c3ccc(SC)cc3)cc(C(F)(F)F)c12` [4-Ethoxy-7-(4-methylthiophenyl)-2-(piperazin-1-yl)-9-trifluoromethyl-pyrido[3′,2′:4,5]thieno[3,2-d]pyrimidine]: below 2 nM; for `CCOc1nc(N2CCNCC2)nc2c1sc1nc(-c3ccc(N4CCOCC4)cc3)cc(C(F)(F)F)c12` [4-Ethoxy-7-(4-morpholinophenyl)-2-(piperazin-1-yl)-9-trifluoromethyl-pyrido[3′,2′:4,5]thieno[3,2-d]pyrimidine]: 2 to 50 nM.

As to `CCOc1nc(N2CCNCC2)nc2c1sc1nc(-c3ccc([N+](=O)[O-])cc3)cc(C(F)(F)F)c12` [4-Ethoxy-7-(4-nitro-phenyl)-2-piperazin-1-yl-9-trifluoromethyl-pyrido[3′,2′:4,5]thieno[3,2-d]pyrimidine], the concentration for half-maximal inhibition (IC50) lay within 2 to 50 nM.

Compound `CCOc1nc(N2CCNCC2)nc2c1sc1nc(-c3ccc(C(F)(F)F)cc3)cc(C)c12` [4-Ethoxy-7-(4-trifluoro-methyl-phenyl)-9-methyl-2-(piperazin-1-yl)-pyrido[3′,2′:4,5]thieno[3,2-d]pyrimidine] came in with an IC50 of 2 to 50 nM. For `CCOc1nc(N2CCNCC2)nc2c1sc1nc(-c3ccc(OCc4ccc([N+](=O)[O-])cc4)cc3)cc(C(F)(F)F)c12` [4-Ethoxy-7-[4-(4-nitrobenzyloxy)-phenyl]-2-piperazin-1-yl-9-trifluoromethyl-pyrido[3′,2′:4,5]thieno[3,2-d]pyrimidine], the 50% inhibitory concentration (IC50) lay within 2 to 50 nM. The compound `CCOc1nc(N2CCNCC2)nc2c1sc1nc(C)cc(-c3ccccc3)c12` [4-Ethoxy-7-methyl-9-phenyl-2-(piperazin-1-yl)-pyrido[3′,2′:4,5]thieno[3,2-d]pyrimidine] displayed a half-inhibitory concentration (IC50) of 2 to 50 nM.

Compound `CCOc1nc(N2CCNCC2)nc2c1sc1nc(-c3ccc4c(c3)OCCO4)cc(CC)c12` [4-Ethoxy-9-ethyl-7-(2,3-dihydrobenzo[b][1,4]dioxin-6-yl)-2-(piperazin-1-yl)-pyrido[3′,2′:4,5]thieno[3,2-d]pyrimidine] had a concentration for half-maximal inhibition (IC50) below 2 nM.

As for `CCOc1nc(N2CCNCC2)nc2c1sc1nc(-c3ccc4c(c3)OCO4)cc(CC)c12` [4-Ethoxy-9-ethyl-7-(3,4-methylenedioxyphenyl)-2-piperazin-1-yl-pyrido[3′,2′:4,5]thieno-[3,2-d]pyrimidine], the 50% inhibitory concentration (IC50) was below 2 nM. Compound `CCOc1nc(N2CCNCC2)nc2c1sc1nc(N3CCN(c4ncccn4)CC3)cc(CC)c12` [4-Ethoxy-9-ethyl-7-(4-(pyrimidyl-2-yl)piperazin-1-yl)-2-piperazin-1-yl-pyrido[3′,2′:4,5]thieno[3,2-d]pyrimidine] returned an IC50 below 2 nM. Regarding `CCOc1nc(N2CCNCC2)nc2c1sc1nc(-c3ccc(I)cc3)cc(CC)c12` [4-Ethoxy-9-ethyl-7-(4-iodo-phenyl)-2-(piperazin-1-yl)-pyrido[3′,2′:4,5]thieno[3,2-d]pyrimidine], the half-inhibitory concentration (IC50) was below 2 nM. `CCOc1nc(N2CCNCC2)nc2c1sc1nc(-c3ccc(OC)cc3)cc(CC)c12` [4-Ethoxy-9-ethyl-7-(4-methoxyphenyl)-2-(piperazin-1-yl)-pyrido[3′,2′:4,5]thieno[3,2-d]pyrimidine] displayed an IC50 below 2 nM. `CCOc1nc(N2CCNCC2)nc2c1sc1nc(-c3ccc(C)cc3)cc(CC)c12` [4-Ethoxy-9-ethyl-7-(4-methyl-phenyl)-2-(piperazin-1-yl)-pyrido[3′,2′:4,5]thieno[3,2-d]pyrimidine] yielded an IC50 below 2 nM.

In turn, `CCOc1nc(N2CCNCC2)nc2c1sc1nc(-c3ccc(SC)cc3)cc(CC)c12` [4-Ethoxy-9-ethyl-7-(4-methylthio-phenyl)-2-(piperazin-1-yl)-pyrido[3′,2′:4,5]thieno[3,2-d]pyrimidine] had an IC50 below 2 nM.

Compound `CCOc1nc(N2CCNCC2)nc2c1sc1nc(N3CCN(c4ccccc4)CC3)cc(CC)c12` [4-Ethoxy-9-ethyl-7-(4-phenyl-piperazin-1-yl)-2-piperazin-1-yl-pyrido[3′,2′:4,5]thieno[3,2-d]pyrimidine] showed a concentration for half-maximal inhibition (IC50) of 2 to 50 nM. In the case of `CCOc1nc(N2CCNCC2)nc2c1sc1nc(-c3ccc(Oc4ccc(OC)cc4)cc3)cc(CC)c12` [4-Ethoxy-9-ethyl-7-[4-(4-methoxyphenoxy)phenyl]-2-(piperazin-1-yl)-pyrido[3′,2′:4,5]thieno[3,2-d]pyrimidine], the concentration for half-maximal inhibition (IC50) is below 2 nM. For the compound `CCOc1nc(N2CCNCC2)nc2c1sc1nc(-c3ccc(-c4cc(OC)c(OC)c(OC)c4)cc3)nc(C)c12` [4-Ethoxy-9-methyl-2-piperazin-1-yl-7-(3′,4′,5′-trimethoxybiphen-4-yl)-thieno[2,3-d:4,5-d′]dipyrimidine], the IC50 is below 2 nM. In the case of `CCOc1nc(N2CCNCC2)nc2c1sc1nc(-c3ccc(-c4cccnc4)cc3)nc(C)c12` [4-Ethoxy-9-methyl-2-piperazin-1-yl-7-(4-[3-pyridyl]-phenyl)-thieno[2,3-d:4,5-d′]dipyrimidine], the IC50 was below 2 nM.

`CCOc1nc(N2CCNCC2)nc2c1sc1nc(-c3ccc(-c4ccncc4)cc3)nc(C)c12` [4-Ethoxy-9-methyl-2-piperazin-1-yl-7-(4-[4-pyridyl]-phenyl)-thieno[2,3-d:4,5-d′]dipyrimidine] yielded an IC50 below 2 nM. In turn, `CCOc1nc(N2CCNCC2)nc2c1sc1nc(-c3ccc(-c4cncnc4)cc3)nc(C)c12` [4-Ethoxy-9-methyl-2-piperazin-1-yl-7-(4-[5-pyrimidinyl]-phenyl)-thieno[2,3-d:4,5-d′]dipyrimidine] registered a half-inhibitory concentration (IC50) of 2 to 50 nM. `CCOc1nc(N2CCNCC2)nc2c1sc1nc(-c3ccc(-c4ccn(C(=O)OC(C)(C)C)c4)cc3)nc(C)c12` [4-Ethoxy-9-methyl-2-piperazin-1-yl-7-(4-[N—BOC-3-pyrrolyl]-phenyl)-thieno[2,3-d:4,5-d′]dipyrimidine] gave an IC50 of 2 to 50 nM.
